# Structures can show the parent of a compound that is named as a salt. ± gives the uncertainty stated by the source.
# What was measured:
# [1] = test system: Klebsiella pneumoniae ATCC 13882; assay: onset of ureolytic pH increase; higher = more delayed ureolysis (inhibition)
# Protocol: (§1)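 Klebsiella pneumoniae ATCC 13882 (start OD600 0.05) grown in M9U medium with 40 mM urea and phenol red plus inhibitor, in triplicate in 96-well plates. A557 and OD630 were read every 15 min for 24 h. Ureolysis was followed as the pH-related A557-A630: onset time, Gompertz-fit rate and final value. Growth was followed as OD630.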
# [2] = test system: Klebsiella pneumoniae ATCC 13882; assay: rate of pH (A557-A630) increase, Gompertz fit (10^-4 s-1); higher = faster ureolysis; extreme values may be limits of the assay
# Protocol: as §1
# [3] = test system: Klebsiella pneumoniae ATCC 13882; assay: final pH-related absorbance (A557-A630) after 24 h (absorbance units); higher = more ureolysis; extreme values may be limits of the assay
# Protocol: as §1
# [4] = test system: Klebsiella pneumoniae ATCC 13882; assay: final OD630 (growth) after 24 h; higher = more bacterial growth; extreme values may be limits of the assay
# Protocol: as §1
SMILES,onset of ureolytic pH increase ([1]; 0.1 mM) [h],onset of ureolytic pH increase ([1]; 1 mM) [h],onset of ureolytic pH increase ([1]; 10 mM) [h],rate of pH ([2]; 0.1 mM),rate of pH ([2]; 1 mM),rate of pH ([2]; 10 mM),final pH-related absorbance ([3]; 0.1 mM),final pH-related absorbance ([3]; 1 mM),final pH-related absorbance ([3]; 10 mM),final OD630 ([4]; 0.1 mM),final OD630 ([4]; 1 mM),final OD630 ([4]; 10 mM),further results
CCOC(=O)[C@@H](N)CS [L-cysteine ethyl ester hydrochloride],7.359 ± 0.0667,> 15,> 15,2.06 ± 0.11,0,0,0.394 ± 0.031,0,0,0.547 ± 0.018,0.299 ± 0.003,0.422 ± 0.045,–
COC(=O)[C@@H](N)CS [L-cysteine methyl ester hydrochloride],9.9208 ± 0.00583,> 15,–,1.55 ± 0.16,0,–,0.566 ± 0.001,0,–,0.457 ± 0.0075,0.261 ± 0.0026,–,–
N[C@@H](CS)C(=O)O [L-cysteine],15.87 ± 0.03,> 25,> 25,1.656 ± 0.0059,0,0,0.225 ± 0.0018,0,0,0.431 ± 0.0025,0.334 ± 0.008,0.289 ± 0.01,–
NC(=O)CC[C@H](N)C(=O)O [L-glutamine],–,–,–,–,–,–,–,–,–,–,–,–,onset of ureolytic pH increase ([1]; 0.009 mM): 9.446 ± 0.0567 h; onset of ureolytic pH increase ([1]; 0.091 mM): 9.264 ± 0.03 h; onset of ureolytic pH increase ([1]; 9.06 mM): 9.369 ± 0.065 h; rate of pH ([2]; 0.009 mM): 1.675 ± 0.015; rate of pH ([2]; 0.091 mM): 1.74 ± 0.052; rate of pH ([2]; 9.06 mM): 1.78 ± 0.018; final pH-related absorbance ([3]; 0.009 mM): 0.223 ± 0.0054; final pH-related absorbance ([3]; 0.091 mM): 0.219 ± 0.005; final pH-related absorbance ([3]; 9.06 mM): 0.222 ± 0.0029; final OD630 ([4]; 0.009 mM): 0.515 ± 0.01; final OD630 ([4]; 0.091 mM): 0.549 ± 0.014; final OD630 ([4]; 9.06 mM): 0.531 ± 0.0093
N[C@@H](Cc1c[nH]cn1)C(=O)O [L-histidine],6.141 ± 0.06,6.853 ± 0.0217,9.8 ± 0.0983,3.03 ± 0.049,3.09 ± 0.27,1.12 ± 0.078,0.485 ± 0.022,0.506 ± 0.007,0.63 ± 0.016,0.709 ± 0.008,0.706 ± 0.007,0.715 ± 0.026,–
O.O.O.O.O.O.O.O=S(=O)([O-])[O-].[Mg+2] [Magnesium sulfate],9.469 ± 0.0767,9.51 ± 0.118,9.25 ± 0.2,2.16 ± 0.017,2.15 ± 0.021,2.01 ± 0.046,0.151 ± 0.0021,0.153 ± 0.0018,0.177 ± 0.0039,0.553 ± 0.034,0.508 ± 0.0073,0.521 ± 0.0037,–
CNC(N)=O [Methylurea],10.25 ± 0.0267,10.25 ± 0.04,10.38 ± 0.016,1.54 ± 0.021,1.531 ± 0.014,1.551 ± 0.0041,0.17 ± 0.0022,0.174 ± 0.001,0.173 ± 0.001,0.418 ± 0.0043,0.427 ± 0.0012,0.419 ± 0.0011,–
NC(=O)CN(CC(=O)O)CC(=O)O [N-(2-acetamido)iminodiacetic acid],–,–,–,–,–,–,–,–,–,–,–,–,onset of ureolytic pH increase ([1]; 0.0035 mM): 9.5 ± 0.138 h; onset of ureolytic pH increase ([1]; 0.0351 mM): 9.373 ± 0.05 h; onset of ureolytic pH increase ([1]; 0.351 mM): 9.697 ± 0.0183 h; rate of pH ([2]; 0.0035 mM): 1.791 ± 0.016; rate of pH ([2]; 0.0351 mM): 1.805 ± 0.018; rate of pH ([2]; 0.351 mM): 1.77 ± 0.053; final pH-related absorbance ([3]; 0.0035 mM): 0.217 ± 0.0022; final pH-related absorbance ([3]; 0.0351 mM): 0.218 ± 0.0017; final pH-related absorbance ([3]; 0.351 mM): 0.219 ± 0.0049; final OD630 ([4]; 0.0035 mM): 0.548 ± 0.048; final OD630 ([4]; 0.0351 mM): 0.519 ± 0.0043; final OD630 ([4]; 0.351 mM): 0.511 ± 0.0089
O=C(O)CNc1ccc(O)cc1 [N-(4-Hydroxyphenyl)glycine],–,–,–,–,–,–,–,–,–,–,–,–,onset of ureolytic pH increase ([1]; 0.001 mM): 9.527 ± 0.0183 h; onset of ureolytic pH increase ([1]; 0.011 mM): 13.5 ± 0.25 h; onset of ureolytic pH increase ([1]; 0.112 mM): 0 min; rate of pH ([2]; 0.001 mM): 2.079 ± 0.0047; rate of pH ([2]; 0.011 mM): 2.81 ± 0.3; rate of pH ([2]; 0.112 mM): 0.632 ± 0.057; final pH-related absorbance ([3]; 0.001 mM): 0.183 ± 0.003; final pH-related absorbance ([3]; 0.011 mM): 0.107 ± 0.013; final pH-related absorbance ([3]; 0.112 mM): 0.331 ± 0.042; final OD630 ([4]; 0.001 mM): 0.438 ± 0.009; final OD630 ([4]; 0.011 mM): 0.357 ± 0.005; final OD630 ([4]; 0.112 mM): 0
O=C1C=CC(=O)N1c1ccccc1 [N-phenylmaleimide],–,–,–,–,–,–,–,–,–,–,–,–,onset of ureolytic pH increase ([1]; 0.039 mM): 13 ± 0.155 h; onset of ureolytic pH increase ([1]; 0.39 mM): > 25 h; onset of ureolytic pH increase ([1]; 3.9 mM): > 25 h; rate of pH ([2]; 0.039 mM): 1.67 ± 0.056; rate of pH ([2]; 0.39 mM): 0; rate of pH ([2]; 3.9 mM): 0; final pH-related absorbance ([3]; 0.039 mM): 0.136 ± 0.0029; final pH-related absorbance ([3]; 0.39 mM): 0; final pH-related absorbance ([3]; 3.9 mM): 0; final OD630 ([4]; 0.039 mM): 0.448 ± 0.07; final OD630 ([4]; 0.39 mM): 0; final OD630 ([4]; 3.9 mM): 0

# — the supplement of paper PMC7244745
